# Assay results as given in ChEMBL document CHEMBL3632553, “New fluorinated agonists for targeting the sphingosin-1-phosphate receptor 1 (S1P(1))” (2015).
# Active and inactive are the calls of the source. No cut-off for these calls is given here.
# Legend:
# [1] = target: Sphingosine 1-phosphate receptor 1 (Homo sapiens) (UniProt P21453); assay: Agonist activity at human sphingosin-1-phosphate receptor 1 expressed in CHO cells assessed as phosphorylation status of p44/42 MAPK after 2.5 mins by Western blotting; type: cell-based
# Sequence of Sphingosine 1-phosphate receptor 1 (Homo sapiens) (P21453 whole entry): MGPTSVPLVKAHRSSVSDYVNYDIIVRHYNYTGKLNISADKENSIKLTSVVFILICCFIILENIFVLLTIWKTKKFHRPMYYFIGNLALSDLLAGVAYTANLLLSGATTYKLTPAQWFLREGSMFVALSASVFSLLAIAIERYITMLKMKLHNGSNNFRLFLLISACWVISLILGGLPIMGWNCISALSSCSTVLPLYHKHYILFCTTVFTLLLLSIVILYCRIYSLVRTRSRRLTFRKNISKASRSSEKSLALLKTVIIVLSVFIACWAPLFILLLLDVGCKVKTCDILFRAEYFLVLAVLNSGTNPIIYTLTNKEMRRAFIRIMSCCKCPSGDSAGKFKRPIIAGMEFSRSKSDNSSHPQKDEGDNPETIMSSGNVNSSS
# [2] = target: Sphingosine 1-phosphate receptor 1 (Homo sapiens) (UniProt P21453); assay: Agonist activity at human sphingosin-1-phosphate receptor 1 expressed in CHO cells assessed as phosphorylation status of p44/42 MAPK after 5 mins by Western blotting; type: cell-based
# [3] = target: Sphingosine 1-phosphate receptor 1 (Homo sapiens) (UniProt P21453); assay: Agonist activity at human sphingosin-1-phosphate receptor 1 expressed in CHO cells assessed as phosphorylation status of p44/42 MAPK after 10 mins by Western blotting; type: cell-based
# Mus musculus [4] = assay: Immunosuppressive activity in mouse assessed as reduction of WBC level in peripheral blood assessed per 10^6 cells at 1.25 mg/kg, ip after 24 hrs by flow cytometry (reference value: 8.94 +/- 0.59 ml); type: functional
# Mus musculus [5] = assay: Immunosuppressive activity in mouse assessed as reduction of CD4+ level in peripheral blood assessed per 10^6 cells at 1.25 mg/kg, ip after 24 hrs by flow cytometry (reference value: 0.73 +/- 0.07 ml); type: functional
# Mus musculus [6] = assay: Immunosuppressive activity in mouse assessed as reduction of CD8+ level in peripheral blood assessed per 10^6 cells at 1.25 mg/kg, ip after 24 hrs by flow cytometry (reference value: 0.48 +/- 0.05 ml); type: functional
# Mus musculus [7] = assay: Immunosuppressive activity in mouse assessed as reduction of B-cells level in peripheral blood assessed per 10^6 cells at 1.25 mg/kg, ip after 24 hrs by flow cytometry (reference value: 4.72 +/- 0.53 ml); type: functional
# Mus musculus [8] = assay: Immunosuppressive activity in mouse assessed as induction of lymphopenia at 1.25 mg/kg, ip after 24 hrs by flow cytometry; type: functional
Compound,Activity [1],Activity [2],Activity [3],cell count (Mus musculus [4]),cell count (Mus musculus [5]),cell count (Mus musculus [6]),cell count (Mus musculus [7]),Activity (Mus musculus [8]) [%]
NC(CO)(CO)CCCCCCCCCCc1ccc(C(F)(F)F)cc1,Active,Active,Active,–,–,–,–,–
NC(CO)(CO)CCCCCCCCCCCCCCC(F)F,Active,Active,Active,1.67 10^6 cells/mL,0.03 10^6 cells/mL,0.04 10^6 cells/mL,0.29 10^6 cells/mL,95
NC(CO)(CO)CCCCCCCCCCc1ccccc1,Active,Active,Active,–,–,–,–,–
CCCCCCCCc1ccc(CCC(N)(CO)CO)cc1 [FINGOLIMOD],–,–,–,3.69 10^6 cells/mL,0.02 10^6 cells/mL,0.04 10^6 cells/mL,0.61 10^6 cells/mL,97
NC(CO)(CO)CCCCCCCCCCc1ccc(F)cc1,Active,Active,Active,–,–,–,–,–
NC(CO)(CO)CCCCCCCCCCc1c(F)c(F)c(F)c(F)c1F,Active,Active,Active,–,–,–,–,–
NC(CO)(CO)CCCCCCCCCCc1ccc(S(F)(F)(F)(F)F)cc1,Active,Active,Active,–,–,–,–,–
NC(CO)(CO)CCCCCCCCCCc1cccc(S(F)(F)(F)(F)F)c1,Active,Active,Active,–,–,–,–,–
